Experimental findings from patent US5118681A (priority 1989, dated 1992) are described below.

The test system of assay [1] is Pseudomonas fluorescens. In words: Speed of Kill Test, alternate, 24 h, synthetic hard water (Table 4). It is filed as cell-based. Conditions: Ps.fl in synthetic hard water, 100 ppm.
The test system of another assay is A.n. In words: Minimum Inhibitory Concentration Test, alternate (Table 4), A.n. Conditions: TSB, 72 hours. Format: cell-based, Aspergillus niger. In outline:
(§1)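 Compound in acetone was diluted into TSB and serially diluted 1:1 from 250 ppm down to 0.8 ppm, in duplicate. Plates were inoculated with diluted 24 h culture and incubated 3 days at 30° C; MIC recorded as lowest concentration with no growth.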

A further assay deals with Candida albicans (C.alb). In words: Minimum Inhibitory Concentration Test, alternate (Table 4), C.alb. Conditions: TSB, 72 hours. Format: cell-based. In outline: as §1
The subject of another assay is E.c. In words: Minimum Inhibitory Concentration Test, alternate (Table 4), E.c. Conditions: TSB, 72 hours. Format: cell-based, Escherichia coli. In outline:
as §1

The next assay relates to Ps.ae. As to the kind of experiment: Minimum Inhibitory Concentration Test, alternate (Table 4), Ps.ae. Format: cell-based, Pseudomonas aerugenosa. Conditions: TSB, 72 hours.
Assay [2] relates to Pseudomonas fluorescens. In words: Minimum Inhibitory Concentration Test, alternate (Table 4), Ps.fl. Format: cell-based. Conditions: TSB, 72 hours, 30° C. In outline:
as §1

A further assay relates to S.a. As to the kind of experiment: Minimum Inhibitory Concentration Test, alternate (Table 4), S.a. Format: cell-based, Staphylococcus aureus. The settings on record: TSB, 72 hours. Put shortly:
as §1

For assay [3], the system named is Pseudoperonospora cubensis. As to the kind of experiment: whole plant or invertebrate. It is filed as in vivo. The settings on record: in vivo.
Another assay deals with Piricularia oryzae. In words: whole plant or invertebrate. Format: in vivo. The settings on record: in vivo.
Assay [4] concerns Pellicularia filamentosa (f. sp. sasiki). As to the kind of experiment: whole plant or invertebrate. It is filed as in vivo. The settings on record: in vivo.
A further assay relates to Phytophthora infestans. In words: whole plant or invertebrate. It is filed as in vivo. The settings on record: 200 ppm application rate.
The subject of assay [5] is Erysiphe graminis (f. sp. tritici). In words: whole plant or invertebrate. Format: in vivo. The settings on record: in vivo.

“N-n-octyl-cis-3-{2-[ethyl-N-(2-thiophenylmethyl)malonamido]thio}acrylamide [Example 28]”: in the assay with Pseudomonas fluorescens [1], the SOK is recorded as greater than 100 ppm. Moreover, the “MIC A.n” value against A.n is listed as 16-31 ppm. Also, in the assay with Candida albicans (C.alb), the “MIC C.alb” value was 63 ppm. Moreover, in the assay on E.c, the “MIC E.c” value was 500 ppm. Moreover, in the assay on Ps.ae, the “MIC Ps.ae” value stood at 500 ppm. In the assay with Pseudomonas fluorescens [2], the “MIC Ps.fl” value stood at 500 ppm. For the same substance, the “MIC S.a” value against S.a worked out at 500 ppm. Further, the “% control CDM” value in assay [3] is given as 96%. For the same substance, in the assay with Piricularia oryzae, the “% control RB” value turned out to be 25%. The “% control RSB” value in assay [4] came out at 0%. For the same substance, the “% control TLB” value in the assay on Phytophthora infestans was found to be 50%. Besides, in [5], the “% control WPM” value came to 0%.
